How the values were obtained:
parkinsonian monkeys [1] = assay: Peak-dose levodopa anti-parkinsonian efficacy in parkinsonian monkeys; format: in vivo, monkey; details: 8 mg/kg D-cycloserine with 40 mg/kg levodopa plus 15 mg benserazide; assessed 30 or 60 minutes after levodopa; two parkinsonian monkeys
Protocol: In two parkinsonian monkeys with an established therapeutic response to levodopa, peak-dose levodopa efficacy was assessed by raters blind to treatment condition. Eight mg/kg D-cycloserine was administered to the monkeys with 40 mg/kg levodopa plus 15 mg benserazide.

parkinsonian monkeys [2] = assay: Duration of levodopa anti-Parkinson effect ("on" time) in parkinsonian monkeys; format: in vivo, monkey; details: 8 mg/kg D-cycloserine with 40 mg/kg levodopa plus 15 mg benserazide, compared to levodopa plus benserazide alone; two parkinsonian monkeys; blinded raters
Protocol: Eight mg/kg D-cycloserine was administered to two parkinsonian monkeys with an established therapeutic response to levodopa, together with 40 mg/kg levodopa plus the 15 mg of the peripheral dopa decarboxylase inhibitor benserazide. Symptomatic benefit was assessed by raters blind to treatment condition.

parkinsonian monkey [3] = assay: Severity of levodopa-induced choreiform dyskinesias in a parkinsonian monkey; format: in vivo
Protocol: A parkinsonian monkey was primed for choreiform dyskinesia following chronic administration of levodopa plus the peripheral dopa decarboxylase inhibitor benserazide. […] Severity of the dyskinesias was rated by observers blind to the treatment condition. Three independent repetitions of the study were performed.

parkinsonian monkey [4] = assay: Severity of levodopa-induced dystonias in a parkinsonian monkey; format: in vivo; details: 8 mg/kg D-cycloserine with 40 mg/kg levodopa plus 15 mg benserazide vs L-Dopa alone; at least over 120 minutes; three repetitions
Protocol: Under these conditions, 8 mg/kg D-cycloserine was administered to the monkeys with 40 mg/kg levodopa plus 15 mg benserazide. The severity of the dystonia was rated by observers blind to the treatment condition. […] Three independent repetitions of the study were performed.

Row | Compound | effect on therapeutic (anti-parkinsonian) efficacy of levodopa, peak-dose (parkinsonian monkeys [1]) | enhancement of levodopa "on" time, or duration of symptomatic relief by levodopa (parkinsonian monkeys [2]) [%] | severity of levodopa-induced choreiform dyskinesias (parkinsonian monkey [3]; 8 mg/kg D-cycloserine with 40 mg/kg levodopa plus 15 mg benserazide vs L-Dopa alone, at least over 120 minutes, monkey primed by chronic levodopa/benserazide, three repetitions) | severity of levodopa-induced dystonias (parkinsonian monkey [4]) | choreiform dyskinesias caused by levodopa challenge (parkinsonian monkey [3]; 40 mg/kg challenge dose of levodopa, parkinsonian monkey primed by chronic levodopa plus benserazide)
1 | N[C@@H]1CONC1=O [D-cycloserine] | did not interfere with or reduce the therapeutic efficacy of levodopa | 41 | significantly decreased the severity of these dyskinesias | significantly decreased the severity of the dystonias | 
2 | N[C@@H](Cc1ccc(O)c(O)c1)C(=O)O [levodopa] |  |  |  |  | caused significant choreiform dyskinesias

— US7160913B2, “Methods and kit for treating Parkinson's disease” (Thomas Jefferson University, priority 2002, dated 2007)
